Target: Heat shock cognate 71 kDa protein (Homo sapiens, UniProt P11142)
Sequence (P11142 whole entry): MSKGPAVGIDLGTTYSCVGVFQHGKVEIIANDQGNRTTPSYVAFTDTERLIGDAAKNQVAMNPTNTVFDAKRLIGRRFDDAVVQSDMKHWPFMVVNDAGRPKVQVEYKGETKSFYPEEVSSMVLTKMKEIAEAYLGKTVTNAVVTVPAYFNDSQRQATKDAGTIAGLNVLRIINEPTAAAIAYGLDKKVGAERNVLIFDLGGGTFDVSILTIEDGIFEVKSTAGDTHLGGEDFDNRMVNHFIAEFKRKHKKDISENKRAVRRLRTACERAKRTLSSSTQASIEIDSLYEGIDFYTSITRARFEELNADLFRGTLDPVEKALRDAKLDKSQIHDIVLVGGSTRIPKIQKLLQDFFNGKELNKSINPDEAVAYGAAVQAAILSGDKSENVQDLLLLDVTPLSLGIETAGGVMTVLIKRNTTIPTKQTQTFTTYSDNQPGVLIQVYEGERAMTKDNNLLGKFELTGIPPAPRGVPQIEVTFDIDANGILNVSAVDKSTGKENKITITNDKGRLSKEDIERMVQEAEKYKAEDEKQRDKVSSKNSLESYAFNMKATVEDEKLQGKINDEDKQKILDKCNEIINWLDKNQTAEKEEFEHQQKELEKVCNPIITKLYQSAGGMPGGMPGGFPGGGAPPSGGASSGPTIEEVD

IC50 [µM]	SMILES
999	CC(=O)N1CCC2(CC1)c1c(n[nH]c1C)OC(=N)C2C#N (configuration not stated) [6-azanyl-1'-ethanoyl-3-methyl-spiro[2H-pyrano[2,3-c]pyrazole-4,4'-piperidine]-5-carbonitrile]
999	C=c1[nH]n(-c2cccc(C(=O)O)c2)c(=O)c1=CC=Cc1ccco1 [SMR000113614]

Source: BindingDB's records for doi:10.7270/Q2MS3R62 (Burnham Center For Chemical Genomics, 2007)
